This is an account of results in PubChem BioAssay AID2060902 (Molecular Pharmacology Branch, DTP, NCI, 2025).

“And” between values parts separate entries of the source, which are not always exact repeats. Identical values can stand only once.

The test system of this experiment is 485368-065-R3-J5-PDC spheroids with HUVEC/MSC, viability. The experiment can be described thus: Anticancer human tumor 485368-065-R3-J5-PDC patient-derived pancreatic carcinoma cell line growth inhibition [RAS]. Particulars: for viability, T/C: stronger effect = lower value. The text has this: RAS pathway inhibitors in Combinations in Complex Spheroids
A high-throughput screen of multi-cell type tumor spheroids was designed to identify active combinations of RAS pathway inhibitors and targeted small molecules. Complex spheroids include a stromal component modeled by human endothelial cells (HUVEC) and fibroblasts modeled by human mesenchymal stem cells (MSCs). The concentration ranges selected for each drug and investigational agent were based upon clinically achievable concentrations if the clinical Cmax of the agent was known.
Compounds. The drugs and investigational agents: abemaciclib (NSC768073), cobimetinib (NSC768068), divarasib (GDC6063, NSC841802), docetaxel (NSC628503), GDC-1971 (RLY-1971, NSC841576), gemcitabine (NSC613327), inavolisib (NSC800729), ipatasertib (NSC767898), KB-0742 (NSC834161), MRTX-1133 (NSC836407), osimertinib (NSC779217), RMC-4630 (NSC839698), RMC-6236 (NSC851965), RMC-6291 (NSC852671), Ro-3306 (NSC812927), sapanisertib (NSC764658), SN-38 (NSC673596), staurosporine (NSC755774), SY5609 (NSC837396), and tovorafenib (DAY101, NSC766906), were obtained from the National Cancer Institute (NCI) Developmental Therapeutics Program Chemical Repository. The FDA-approved anticancer drug set is available from the NCI Developmental Therapeutics Program. […] The stock solutions were prepared in dimethyl sulfoxide (DMSO, Sigma-Aldrich, St. Louis, MO, cat. D2650) at 800-fold the tested concentration and stored at -70 degrees C prior to their use. All drugs and investigational agents were tested over a range starting from a high concentration at or near the clinical Cmax and decreasing in half-log increments. If the clinical Cmax for an agent had not been determined, the highest concentration tested was 10 microM.
Cell Culture. All cells were maintained in an incubator at 37 degrees C and 5% CO2 with 95% humidity. The PDC lines were cultured according to standard operating procedures established by the NCI PDMR. All PDCs were thawed and cultured in Matrigel-coated flasks prepared with a working solution of 1X Ham's F-12 nutrient mix, without supplementation (Invitrogen, Waltham, MA, cat. 11765054), 100 U/mL penicillin-streptomycin (Invitrogen, cat. 15140122), and 2.5% Matrigel (Corning Inc., Corning, NY, cat. 354248) for the first three passages. The 362531-283-R-J2-PDC and 782815-120-R-J1-PDC lines were cultured in 6C/Colon 1B media, which includes advanced DMEM/F-12 (Thermo Fisher Scientific, cat. 12634028), 10 mM HEPES (Thermo Fisher Scientific, cat. 15630080), 1X GlutaMAX supplement (Thermo Fisher Scientific, cat. 35050061), 0.1 mg/mL primocin (InvivoGen, San Diego, CA, cat. ant-pm-2), 10% defined fetal bovine serum, heat inactivated (HyClone Laboratories Inc., Logan, UT, cat. SH30070.03HI), 50% L-WRN conditioned media (ATCC, cat. CRL-3276), 1.25 mM N-Acetyl-L-cysteine (Sigma-Aldrich, cat. A9165), 10 mM nicotinamide (Sigma-Aldrich, cat. N0636), 1X B-27 supplement (Thermo Fisher Scientific, cat. 17504044), 1X N-2 supplement (Thermo Fisher Scientific, cat. 17502048), 50 ng/mL human EGF (Thermo Fisher Scientific, cat. PHG0311), and 10 microM Y-27632 dihydrochloride (Tocris Bioscience, cat. 1254). The K12877-001-R-J1-PDC line was cultured in 6I media, which includes all 6C/Colon 1B media plus 10 ng/mL human FGF-10 (PeproTech, cat. 100-26), 1 ng/mL human FGF-2 (PeproTech, cat. 100-18B), 1 µM prostaglandin E2 (Tocris Bioscience, cat. 2296), […] hydrocortisone (Sigma-Aldrich, cat. H4001), and […] bovine insulin (Sigma-Aldrich, cat. I6634). The K86415-001-R-J1-PDC line was cultured in 6D media, which includes all 6C/Colon 1B media components minus the L-WRN conditioned media. The 485176-168-R4-J1-PDC was cultured in PANC media, which includes all 6C/Colon 1B media plus 100 ng/mL human FGF-10 (PeproTech, cat. 100-26), 500 nM SB-431542 (Selleckchem, cat. S1067), and 10 nM gastrin (Tocris Bioscience, cat. 3006). […]

The term viability, T/C denotes the result in the treated group divided by that in the control group, in per cent. By IC50 is commonly meant the concentration that gives 50% inhibition.
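Also: spheroids exposed to agents for seven days before readout.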

`C#Cc1c(F)ccc2cc(O)cc(-c3ncc4c(N5CC6CCC(C5)N6)nc(OCC56CCCN5CC(F)C6)nc4c3F)c12` (configuration not stated): the viability, T/C by setting is: (compound 0.0316 µM) 105% [middle of 8 runs]; (compound 0.1 µM) 108% [middle of 8 runs]; (compound 0.316 µM) 100% [middle of 8 runs]; (compound 1 µM) 99.4% [middle of 8 runs]; (compound 3.16 µM) 76.5% [middle of 8 runs]; (compound 10 µM) 42.4% [middle of 8 runs]. For the same molecule, the IC50 (compound alone, run of 07/15/2024) is 7.73 µM [middle of 8 runs].

Regarding `CC(=O)OC12COC1CC(O)C1(C)C(=O)C(O)C3=C(C)C(OC(=O)C(O)C(NC(=O)OC(C)(C)C)c4ccccc4)CC(O)(C(OC(=O)c4ccccc4)C21)C3(C)C` (configuration not stated), the viability, T/C is 16.4% [middle of 4 runs] (compound 0.0316 µM); 15.4% [middle of 4 runs] (compound 0.1 µM); 14% [middle of 4 runs] (compound 0.316 µM); 16.1% [middle of 4 runs] (compound 1 µM); 19.1% [middle of 4 runs] (compound 3.16 µM); 29.6% [middle of 4 runs] (compound 10 µM). Besides, the IC50 (curve of compound) was under 0.0316 µM.

With `CC(C)NCC(C(=O)N1CCN(c2ncnc3c2C(C)CC3O)CC1)c1ccc(Cl)cc1` (configuration not stated), the viability, T/C is, setting by setting: (compound 0.0316 µM) 104% and 101% (2×) and 98.3%; (compound 0.1 µM) 100% [middle of 4 runs]; (compound 0.316 µM) 94.8% [middle of 4 runs]; (compound 1 µM) 86.2% [middle of 4 runs]; (compound 3.16 µM) 77.1% [middle of 4 runs]; (compound 10 µM) 52.3% [middle of 4 runs]. The IC50 (curve of compound) is > 10 µM and 8.61 µM.

On to `CC(Nc1ccc2c(c1)OCCn1cc(N3C(=O)OCC3C(F)F)nc1-2)C(N)=O` (configuration not stated), for which the viability, T/C (compound 0.0316 µM) was 96.7% [middle of 4 runs]; the viability, T/C (compound 0.1 µM) is 90% [middle of 4 runs]; the viability, T/C (compound 0.316 µM) is 99.2% [middle of 4 runs]; the viability, T/C (compound 1 µM) was 82.1% [middle of 4 runs]; the viability, T/C (compound 3.16 µM) was 82% [middle of 4 runs]; the viability, T/C (compound 10 µM) is 58.4% [middle of 4 runs]. The IC50 (curve of compound) is over 10 µM.

Turning to `CC1(C)CCC(Nc2ncc(C(F)(F)F)c(-c3c[nH]c4c(P(C)(C)=O)c(C#N)ccc34)n2)CN1` (configuration not stated), the viability, T/C is, setting by setting: (compound 0.03 µM) 41.7% [middle of 4 runs]; (compound 0.0949 µM) 38.6% [middle of 4 runs]; (compound 0.3 µM) 39.7% [middle of 4 runs].

With `CC1(O)CCCC1n1c(=O)c(C(F)F)cc2cnc(NC3CCN(S(C)(=O)=O)CC3)nc21` (configuration not stated), the viability, T/C (compound 0.0316 µM) was 104% [middle of 4 runs]; the viability, T/C (compound 0.1 µM) is 74% [middle of 4 runs]; the viability, T/C (compound 0.316 µM) was 50.7% [middle of 4 runs]; the viability, T/C (compound 1 µM) is 42.3% (2×) and 46.1% and 41.8%; the viability, T/C (compound 3.16 µM) was 47.1% [middle of 4 runs]; the viability, T/C (compound 10 µM) is 19.6% [middle of 4 runs]. For the same molecule, under “curve of compound”, the IC50 was 469 nM [middle of 4 runs].

For the molecule `CCC(CC)c1cc(NC2CCC(N)C2)n2nccc2n1` (configuration not stated), the viability, T/C is, setting by setting: (compound 0.0316 µM) 106% [middle of 4 runs]; (compound 0.1 µM) 99.2% [middle of 4 runs]; (compound 0.316 µM) 115% and 105% (2×) and 109%; (compound 3.16 µM) 4.93% [middle of 4 runs]; (compound 10 µM) 8.61% [middle of 4 runs]. Further, where the note is “curve of compound”, the half-inhibitory concentration (IC50) is 1.96 µM [middle of 4 runs].

With `C[C@@H](NC(=O)c1ncnc(N)c1Cl)c1ncc(C(=O)Nc2cc(C(F)(F)F)c(Cl)cn2)s1`, the viability, T/C (compound 0.0316 µM) is 114% (3×) and 115%; the viability, T/C (compound 0.1 µM) is 104% [middle of 4 runs]; the viability, T/C (compound 0.316 µM) was 109% [middle of 4 runs]; the viability, T/C (compound 1 µM) is 93.4% and 96.5% (2×) and 92.5%; the viability, T/C (compound 3.16 µM) is 108% [middle of 4 runs]; the viability, T/C (compound 10 µM) was 82.4% [middle of 4 runs]. Besides, the IC50 (curve of compound) was over 10 µM.

On to `Cc1nc(N2CCC3(CC2)COC(C)C3N)c(CO)nc1Sc1ccnc(N)c1Cl` (configuration not stated), for which the viability, T/C (compound 0.0316 µM) is 102% [middle of 4 runs]; the viability, T/C (compound 0.1 µM) is 93.5% [middle of 4 runs]; the viability, T/C (compound 0.316 µM) was 88.9% [middle of 4 runs]; the viability, T/C (compound 1 µM) was 72.8% [middle of 4 runs]. Also, the half-maximal inhibitory concentration (IC50) (curve of compound) is over 10 µM.

With `NC1c2ccccc2OC12CCN(c1cnc3c(N4CCCc5ncccc54)n[nH]c3n1)CC2` (configuration not stated), the viability, T/C is 92.8% [middle of 4 runs] (compound 0.0316 µM), 82.1% [middle of 4 runs] (compound 0.1 µM) and 70.1% [middle of 4 runs] (compound 1 µM). The half-maximal inhibitory concentration (IC50) (curve of compound) was over 10 µM.

Take `Nc1ccn(C2OC(CO)C(O)C2(F)F)c(=O)n1` (configuration not stated): the viability, T/C (compound 0.00316 µM) was 100% [middle of 4 runs]; the viability, T/C (compound 0.01 µM) was 29.2% [middle of 4 runs]; the viability, T/C (compound 0.0316 µM) is 10.9% [middle of 4 runs]; the viability, T/C (compound 0.1 µM) is 10.5% [middle of 4 runs]; the viability, T/C (compound 0.316 µM) is 12.1% [middle of 4 runs]; the viability, T/C (compound 1 µM) was 11.3% [middle of 4 runs]. Under “curve of compound”, the concentration for half-maximal inhibition (IC50) was 0.00713 µM and 0.00664 µM and 0.00675 µM.
